Some results are limits rather than exact numbers.

In ChEMBL document CHEMBL5441445, “ASAP - In vitro CYP inhibition pooled” (2024) one finds IC50 data, which are given here for nine compounds.

Holding throughout (format): ADME
The target in one test is Cytochrome P450 2C9 (Homo sapiens, UniProt P11712). The test is described as follows: (§1) The compounds are incubated at 0, 0.15, 0.5, 1.5, 5, 15 and 50 uM concentration at 37 C, CYP2C9 is pooled in a ratio such that biotransformation of each probe substrate is specific for the CYP450. Substrates (at their Km) are also pooled within the same solution to create an enzyme-substrate stock and test compound is added. The final solvent concentration is 1% DMSO. After equilibration to 37 C, addition of NADPH initiates substrate biotransformation. The incubation is stopped at 10 min by methanol containing internal standard. The quenched samples are centrifuged to precipitate the protein and the supernatants are analyzed by LC-MS/MS to measure metabolite formation. IC50 of test compounds against CYP2C9 is calculated. The assay has been performed by Concept Life Sciences Ltd.

A further test has as its target Cytochrome P450 3A4 (Homo sapiens, UniProt P08684). Described as §1, with “CYP3A4” for “CYP2C9”.
For a further test, the target named is Cytochrome P450 2C19 (Homo sapiens, UniProt P33261). Described as §1, with “CYP2C19” for “CYP2C9”.
For another test, the target named is Cytochrome P450 2D6 (Homo sapiens, UniProt P10635). Described as §1, with “CYP2D6” for “CYP2C9”.
Another test addresses T1, Cytochrome P450 1A2 (Homo sapiens, UniProt P05177).
T1 sequence (P05177 whole entry): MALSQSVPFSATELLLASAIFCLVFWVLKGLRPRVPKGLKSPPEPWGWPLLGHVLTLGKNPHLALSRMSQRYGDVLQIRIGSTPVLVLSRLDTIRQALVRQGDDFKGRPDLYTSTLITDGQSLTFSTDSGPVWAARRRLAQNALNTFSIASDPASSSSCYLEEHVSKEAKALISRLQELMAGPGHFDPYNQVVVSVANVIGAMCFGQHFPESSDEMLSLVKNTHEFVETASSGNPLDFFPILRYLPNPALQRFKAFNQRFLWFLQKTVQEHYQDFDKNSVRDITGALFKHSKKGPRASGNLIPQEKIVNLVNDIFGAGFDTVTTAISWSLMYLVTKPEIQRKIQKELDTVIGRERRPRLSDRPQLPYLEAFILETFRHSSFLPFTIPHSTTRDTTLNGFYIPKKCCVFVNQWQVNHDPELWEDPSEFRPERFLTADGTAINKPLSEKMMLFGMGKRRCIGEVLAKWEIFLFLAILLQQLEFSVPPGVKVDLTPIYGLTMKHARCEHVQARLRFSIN
The description is as §1, with “CYP1A2” for “CYP2C9”.

Cytochrome P450 2C19, sequence (P33261 whole entry): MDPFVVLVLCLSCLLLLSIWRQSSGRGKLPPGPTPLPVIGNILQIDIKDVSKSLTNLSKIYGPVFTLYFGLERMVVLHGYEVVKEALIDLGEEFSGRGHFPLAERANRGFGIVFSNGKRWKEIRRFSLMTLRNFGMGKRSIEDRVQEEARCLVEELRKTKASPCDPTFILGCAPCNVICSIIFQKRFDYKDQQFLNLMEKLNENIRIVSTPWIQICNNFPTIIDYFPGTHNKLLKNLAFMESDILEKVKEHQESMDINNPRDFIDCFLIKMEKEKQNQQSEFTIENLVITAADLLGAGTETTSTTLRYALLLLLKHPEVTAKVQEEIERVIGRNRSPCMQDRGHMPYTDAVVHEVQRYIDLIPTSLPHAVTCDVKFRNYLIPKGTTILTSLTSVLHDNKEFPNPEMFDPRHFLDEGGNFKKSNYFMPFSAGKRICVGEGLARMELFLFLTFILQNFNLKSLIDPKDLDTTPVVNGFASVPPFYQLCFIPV
Cytochrome P450 3A4, sequence (P08684 whole entry): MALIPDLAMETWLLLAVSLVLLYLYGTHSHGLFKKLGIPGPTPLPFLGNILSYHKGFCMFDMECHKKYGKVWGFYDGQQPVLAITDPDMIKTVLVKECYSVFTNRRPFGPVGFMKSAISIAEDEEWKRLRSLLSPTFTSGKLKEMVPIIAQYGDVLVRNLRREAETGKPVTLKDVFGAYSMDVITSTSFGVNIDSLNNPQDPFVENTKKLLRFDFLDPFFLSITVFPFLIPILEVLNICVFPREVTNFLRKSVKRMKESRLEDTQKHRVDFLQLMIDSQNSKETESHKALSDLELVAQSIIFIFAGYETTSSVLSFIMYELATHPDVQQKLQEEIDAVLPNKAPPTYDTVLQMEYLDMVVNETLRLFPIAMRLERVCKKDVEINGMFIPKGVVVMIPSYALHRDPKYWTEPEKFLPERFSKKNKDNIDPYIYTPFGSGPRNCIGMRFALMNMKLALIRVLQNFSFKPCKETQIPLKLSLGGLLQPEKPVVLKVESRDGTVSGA
Cytochrome P450 2D6, sequence (P10635 whole entry): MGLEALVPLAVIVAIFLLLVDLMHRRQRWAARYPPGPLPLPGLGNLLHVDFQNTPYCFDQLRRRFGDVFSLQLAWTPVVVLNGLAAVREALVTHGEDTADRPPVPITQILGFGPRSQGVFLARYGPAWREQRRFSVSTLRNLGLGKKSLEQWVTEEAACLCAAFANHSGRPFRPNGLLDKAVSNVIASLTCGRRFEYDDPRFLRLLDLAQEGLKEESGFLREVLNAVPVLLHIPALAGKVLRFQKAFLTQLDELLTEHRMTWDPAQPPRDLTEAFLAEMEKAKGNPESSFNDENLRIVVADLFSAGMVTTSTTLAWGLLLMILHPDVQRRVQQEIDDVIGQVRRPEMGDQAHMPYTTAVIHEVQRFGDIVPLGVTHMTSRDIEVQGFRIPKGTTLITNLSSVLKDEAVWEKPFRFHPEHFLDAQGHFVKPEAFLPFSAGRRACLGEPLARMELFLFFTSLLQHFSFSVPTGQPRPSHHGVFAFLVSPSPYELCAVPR
Cytochrome P450 2C9, sequence (P11712 whole entry): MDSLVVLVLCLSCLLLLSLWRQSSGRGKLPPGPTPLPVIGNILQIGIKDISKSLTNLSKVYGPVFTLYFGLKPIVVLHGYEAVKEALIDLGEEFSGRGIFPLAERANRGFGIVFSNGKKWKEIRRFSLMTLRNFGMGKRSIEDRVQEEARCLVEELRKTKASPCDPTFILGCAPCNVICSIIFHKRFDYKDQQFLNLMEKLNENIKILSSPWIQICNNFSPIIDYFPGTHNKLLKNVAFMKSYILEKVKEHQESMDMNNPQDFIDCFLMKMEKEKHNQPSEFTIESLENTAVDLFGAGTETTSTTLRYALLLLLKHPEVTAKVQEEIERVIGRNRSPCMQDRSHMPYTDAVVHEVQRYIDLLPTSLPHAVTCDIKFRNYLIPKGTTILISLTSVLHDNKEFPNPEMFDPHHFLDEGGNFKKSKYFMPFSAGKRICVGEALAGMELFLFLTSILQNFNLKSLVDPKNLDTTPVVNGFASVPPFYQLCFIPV

With `Cn1ncc(-c2cc3c(N[C@@H](c4ccc5c(n4)OCCO5)C(C)(C)C)ncnc3[nH]2)c1C#N`, the IC50 is 42.6 µM at Cytochrome P450 2C9; 8.79 µM at Cytochrome P450 3A4; > 50 µM at Cytochrome P450 2C19; 20.5 µM at Cytochrome P450 2D6; > 50 µM at Cytochrome P450 1A2.
Consider `CC(C)[C@@H](Nc1ncnc2[nH]c(C(=O)N[C@@H]3CCN(C)C3)cc12)c1ccc2c(c1)S(=O)(=O)CCC2`, for which the IC50 on Cytochrome P450 2C9, on Cytochrome P450 3A4, at Cytochrome P450 2C19, at Cytochrome P450 2D6 and on Cytochrome P450 1A2 was > 50 µM each time.
Consider `COc1ccc([C@H](Cc2nnn[nH]2)NC(=O)c2ncnc3[nH]ccc23)cc1`, for which the IC50 at Cytochrome P450 2C9 was 31.2 µM; at Cytochrome P450 3A4, 25.4 µM; on Cytochrome P450 2C19, > 50 µM; at Cytochrome P450 2D6, > 50 µM; at Cytochrome P450 1A2, > 50 µM.
On to `CNCc1cc(-c2cc3c(N[C@@H](c4ccc5c(c4)S(=O)(=O)CCC5)C(C)C)ncnc3[nH]2)co1`, for which the IC50 on Cytochrome P450 2C9 was 5.25 µM; on Cytochrome P450 3A4 it was 1.81 µM; on Cytochrome P450 2C19, 22.6 µM; at Cytochrome P450 2D6, 9.03 µM; on Cytochrome P450 1A2, 49.3 µM.
For `C[C@H](C(=O)O)[C@@H](NC(=O)c1ncnc2[nH]ccc12)c1ccc(Br)cc1`, the concentration for half-maximal inhibition (IC50) on Cytochrome P450 2C9 was 5.14 µM; at Cytochrome P450 3A4, > 50 µM; on Cytochrome P450 2C19 it was > 50 µM; at Cytochrome P450 2D6, > 50 µM; at Cytochrome P450 1A2 it was > 50 µM.
In the case of `CNC(=O)Cn1cc(-c2cc3c(N[C@@H](c4ccc5c(c4)S(=O)(=O)CCC5)C(C)C)ncnc3[nH]2)cn1`, the IC50 on Cytochrome P450 2C9 is 29 µM; on Cytochrome P450 3A4 it was 3.1 µM; on Cytochrome P450 2C19, 34.7 µM; on Cytochrome P450 2D6, 48.2 µM; at Cytochrome P450 1A2, 44.1 µM.
For the compound `CC(C)[C@@H](Nc1ncnc2[nH]c(-c3cnn(C)c3C#N)cc12)c1ccc2c(n1)OCCO2`, the IC50 was 4.34 µM on Cytochrome P450 2C9; 2.07 µM on Cytochrome P450 3A4; 9.51 µM on Cytochrome P450 2C19; 22.7 µM on Cytochrome P450 2D6; 8.86 µM at Cytochrome P450 1A2.
`CC(C)[C@H](Nc1ncnc2[nH]c(-c3cnn(C)c3C#N)cc12)c1ccc2c(n1)OCCO2`: the IC50 on Cytochrome P450 2C9 was 5.93 µM; at Cytochrome P450 3A4 it was 3.69 µM; on Cytochrome P450 2C19 it was 16.9 µM; on Cytochrome P450 2D6, 27.7 µM; at Cytochrome P450 1A2 it was 35.2 µM.
Consider `CC(C)[C@H](Nc1ncnc2[nH]ccc12)c1ccc2c(c1)S(=O)(=O)CCC2`, for which the IC50 is 18.2 µM on Cytochrome P450 2C9; 3.2 µM at Cytochrome P450 3A4; 15 µM at Cytochrome P450 2C19; > 50 µM at Cytochrome P450 2D6; > 50 µM on Cytochrome P450 1A2.
